Results from patent publication US8461166B2, “Polyalkylene glycol derivatives of inhibitors of epidermal growth factor receptor tyrosine kinase” (Hadasit Medical Research Services and Development Ltd., priority 2005, dated 2013).
In brackets after ≈: the same amount, converted by molar mass.

Tests used:
[1] = target: T1, EGFR (Homo sapiens, UniProt P00533); experiment: Irreversibility test protocol: EGFR autophosphorylation inhibition in intact A431 cells (Western blot); format: cell-based; conditions: for irreversible inhibitory characteristic (irreversible binding to EGFR): A431 cells, EGF stimulation 8 hours after removal of the inhibitor vs immediately after
T1 construct: endogenous in cells; host or cells: A431 human epidermoid vulval carcinoma cells
T1 sequence (P00533 25-1210): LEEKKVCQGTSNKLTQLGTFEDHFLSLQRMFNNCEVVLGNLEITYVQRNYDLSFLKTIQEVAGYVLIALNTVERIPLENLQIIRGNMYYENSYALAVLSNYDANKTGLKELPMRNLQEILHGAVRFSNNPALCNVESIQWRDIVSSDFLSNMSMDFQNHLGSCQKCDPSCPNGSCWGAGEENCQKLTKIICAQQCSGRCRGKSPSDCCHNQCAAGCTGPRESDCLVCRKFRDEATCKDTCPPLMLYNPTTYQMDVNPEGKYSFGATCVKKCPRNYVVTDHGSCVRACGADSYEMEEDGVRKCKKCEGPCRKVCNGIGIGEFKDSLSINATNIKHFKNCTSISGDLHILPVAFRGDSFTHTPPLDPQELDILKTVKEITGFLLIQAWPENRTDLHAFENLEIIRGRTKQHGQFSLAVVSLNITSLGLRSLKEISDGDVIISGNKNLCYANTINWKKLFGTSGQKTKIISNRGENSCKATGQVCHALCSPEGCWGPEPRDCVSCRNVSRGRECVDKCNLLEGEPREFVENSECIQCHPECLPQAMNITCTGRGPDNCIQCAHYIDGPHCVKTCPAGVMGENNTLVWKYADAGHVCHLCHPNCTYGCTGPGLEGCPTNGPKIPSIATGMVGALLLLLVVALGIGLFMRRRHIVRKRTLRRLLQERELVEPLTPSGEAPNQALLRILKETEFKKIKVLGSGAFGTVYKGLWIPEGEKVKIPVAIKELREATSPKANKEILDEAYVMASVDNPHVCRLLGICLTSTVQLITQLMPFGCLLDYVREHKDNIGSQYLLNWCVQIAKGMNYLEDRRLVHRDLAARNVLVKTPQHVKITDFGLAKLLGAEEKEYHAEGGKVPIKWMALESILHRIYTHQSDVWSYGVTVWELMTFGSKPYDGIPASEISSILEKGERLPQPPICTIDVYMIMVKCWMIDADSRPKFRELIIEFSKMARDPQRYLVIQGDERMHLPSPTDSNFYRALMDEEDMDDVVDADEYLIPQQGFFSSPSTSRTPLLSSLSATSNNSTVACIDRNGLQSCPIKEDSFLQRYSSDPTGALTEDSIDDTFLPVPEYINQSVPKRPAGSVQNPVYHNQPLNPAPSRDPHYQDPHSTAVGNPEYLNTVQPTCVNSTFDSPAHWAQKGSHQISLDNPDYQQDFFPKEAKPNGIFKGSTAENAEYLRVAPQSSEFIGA
Description: Irreversibility Test Protocol: The inhibitory potency of compounds 1a-c, as well as the irreversible nature of EGFR inhibition thereof were evaluated in intact A431 cells, according to published procedures (Smail et al., 1999). In brief, A431 human epidermoid vulval carcinoma were grown in six-well plates for 48 hours and further maintained in serum-free media for additional 18 hours. Duplicate sets of cells were incubated with increasing concentrations of the tested inhibitor for one hour. One set of the cells was thereafter stimulated with EGF, immediately after removal of the tested inhibitor. Another set of the cells was washed to remove the inhibitor, and EGF stimulation was carried out 8 hours after removal of the inhibitor from the medium. Cell lysates were prepared and loaded onto SDS-PAGE (8% acryl amide) for Western Blot analysis, and the extent of EGFR phosphorylation was evaluated by measuring the signal intensity of the corresponding phosphotyrosine band using a mix of anti-phosphotyrosine antibodies, PY20 (Santa Cruz Biotechnology Inc.) and 4G10 (produced from Su4G10 hybridoma cells). The degree of EGFR phosphorylation was measured for each set of cells and the IC50 values of Compounds 1a-c and 10b, vis-à-vis the level of EGFR's phosphotyrosine content were determined. A minimum of two different assays with similar results were considered. Each experiment was performed in duplicates.
The inhibitory potency of exemplary compounds according to the present embodiments, as well as the extent of their irreversible inhibition of the EGFR were first evaluated in intact A431 cells, using the protocol described hereinabove. The IC50 values were determined by the extent of EGFR phosphorylation at each inhibitor concentration either immediately after or 8 hours post removal of the tested inhibitor from the medium.

[2] = Water solubility determination (HPLC); format: physicochemical; conditions: aqueous buffer, thermodynamic from solid; MOPS buffer pH 7.4, room temperature
Description: DMSO (1 ml) and MOPS buffer pH 7.4 (1 ml) were separately added to test tubes containing the tested compound (Compounds 1a-c and 10b, ML04 or ML05), such that for each compound, two test tubes were prepared. The tubes were sonicated at room temperature for 20 minute, left intact for 10 minutes, and were then filtered through a 0.45 μm filter. Each of the DMSO solutions was diluted 10-folds with DMSO. A 50 μl sample of each solution was analyzed by HPLC (using C-18 analytical column, a mixture of 55% CH3CN:45% acetate buffer 0.1 M, pH 3.8, as a mobile phase at a flow rate of 1 ml/minute, and a UV detector operated at 254 nm). Measurements were performed in triplicate.

[3] = Partition coefficient determination (1-octanol/buffer, HPLC); format: physicochemical; conditions: 1-octanol / sodium phosphate buffer 0.1 M, pH 7.4; read-out: Log P (partition coefficient)
Description: Partition coefficient determination: Compounds 1a-c and 10b, ML04 and ML05 (3 mg) were dissolved in sodium phosphate buffer (0.1 M, pH 7.4, 5 ml) and 1-octanol (1 ml) and the resulting mixture was vortexed for 2 minutes, filtered, and maintained at room temperature for 10 minutes. The reaction mixture was then centrifuged at 4000 g for 10 minutes. Fifty (50) μl portions were taken from the organic (1-octanol) and from the aqueous (buffer) layers, and were dissolved in 0.45 ml acetonitrile. The samples were analyzed by HPLC system (C-18 analytical column, a mixture of 55% acetonitrile:45% acetate buffer 0.1 M, pH 3.8 as a mobile phase, flow rate of 1 ml/minute). The partition coefficients (Log P) were determined by the concentration ratio of the tested compound in the organic phase and the aqueous phase. Measurements were performed in triplicate.

SMILES	irreversible inhibitory characteristic (irreversible binding to EGFR) [1]	solubility at 20 min [2]	logP [3]	IC50 ([1]; intact A431 cells, 1 hour incubation with inhibitor, EGF stimulation, read-out: IC50 vis-à-vis the level of EGFR's phosphotyrosine content)	melting point
O=C(CCl)Nc1cc2c(Nc3cc(Cl)c(Cl)cc3F)ncnc2cc1OCCOCCOCCOCCOCCOCCF [Compound 1c, 2-Chloro-N-(4-(4,5-Dichloro-2-fluoro-phenylamino)-7-{2-[2-(2-{2-[2-(2-fluoro-ethoxy)-ethoxy]-ethoxy}-ethoxy)-ethoxy]-ethoxy}-quinazoline-6-yl)-acetamide]	irreversibly bind to the EGFR				
CN(C)CC=CC(=O)Nc1ccc2ncnc(Nc3cc(Cl)c(Cl)cc3F)c2c1 [ML04, 4-dimethylamino-but-2-enoic acid [4-(3,4-dichloro-6-fluoro-phenylamino)-quinazoline-6-yl]-amide, reference compound]		0.14 µg/mL (≈ 0.322 µM)	3.9		
O=C(CCl)Nc1cc2c(Nc3cc(Cl)c(Cl)cc3F)ncnc2cc1OCCOCCF [Compound 1a, 2-Chloro-N-{4-(4,5-Dichloro-2-fluoro-phenylamino)-7-[2-(2-fluoro-ethoxy)-ethoxy]-quinazoline-6-yl}-acetamide]	irreversibly bind to the EGFR				167 to 169 °C

Other lines, results leading:

irreversible inhibitory characteristic (irreversible binding to EGFR) [1]	solubility at 20 min [2]	logP [3]	IC50 ([1]; intact A431 cells, 1 hour incubation with inhibitor, EGF stimulation, read-out: IC50 vis-à-vis the level of EGFR's phosphotyrosine content)	melting point	SMILES
irreversible inhibitory characteristic	3.5 µg/mL (≈ 5.57 µM)	3.7	5 nM		CN(C)CC=CC(=O)Nc1cc2c(Nc3cc(Cl)c(Cl)cc3F)ncnc2cc1OCCOCCOCCOCCF [Compound 10b, 4-dimethylamino-but-2-enoic acid {4-(4,5-Dichloro-2-fluoro-phenylamino)-7-(2-{2-[2-(2-fluoro-ethoxy)-ethoxy]-ethoxy}-ethoxy)-quinazoline-6-yl}-amide]
irreversibly bind to the EGFR				135 to 137 °C	O=C(CCl)Nc1cc2c(Nc3cc(Cl)c(Cl)cc3F)ncnc2cc1OCCOCCOCCOCCF [Compound 1b, 2-Chloro-N-[4-(4,5-Dichloro-2-fluoro-phenylamino)-7-(2-{2-[2-(2-fluoro-ethoxy)-ethoxy]-ethoxy}-ethoxy)-quinazoline-6-yl]-acetamide]
